Assay results as given in patent publication US6200591A, “Method of administration of sildenafil to produce instantaneous response for the treatment of erectile dysfunction” (priority 1998, dated 2001).
“Also recorded” adds a separate entry of the source. Where a name gives a salt, the structure may show the parent alone. Ends that are not written are not given here.

How the values were obtained:
[1] = intracavernosal, cited from earlier work; for Results of i.c. injection in erectile dysfunction: either alone or in combination
[2] = Peak plasma concentration time / response in humans, current oral tablet formulation vs intranasal route; type: in vivo; settings: indicated by rat results
[3] = currently used oral route; cited from earlier work
[4] = Absorption of solubilized sildenafil from the nasal cavity of rats (blood concentration after intranasal vs intravenous administration); type: in vivo; settings: for Concentration of sildenafil in the blood of rats, intranasal, mean: n = 5; for Concentration of sildenafil in the blood of rats, intravenous, mean: n = 3
Procedure: These experiments determine the bioavailability of sildenafil, or derivatives thereof, after nasal administration and compare it to that after intravenous administration. In particular, the present experiment determined the absorption of sildenafil into the blood of rats following intranasal administration of a formulation in which the sildenafil was solubilized by the addition of mesylic acid (see below).
The nasal absorption of sildenafil, or derivatives thereof, were measured using an in vivo technique in rats. Rats were fasted overnight prior to experimentation. Surgical procedures were performed under equithesin anesthesia (3 ml/kg, i.p.). An incision was made in the neck of each rat, and the trachea cannulated with polyethylene tubing (PF-260). A closed end tube was inserted through the esophagus to the posterior part of the nasal cavity to prevent drug from entering the esophagus. The nasopalatine passage was closed with an adhesive agent to prevent drainage of the drug from the nasal cavity to the mouth.
The jugular vein and femoral artery were cannulated with polyethylene tubing for intravenous drug administration and intra-arterial blood sampling.
Solutions of sildenafil hydrochloride (2 and 4 mg/rat/50 μl) were prepared in water and administered through the right nostril using a microsyringe. For intravenous administration, the same dose of the drug was injected into the jugular vein (1 ml/kg body weight). […]
Bioavailability of nasally administered drug was calculated by comparing the plasma drug concentrations between nasal and intravenous delivery routes and expressed as a percentage of the intravenous bioavailability.
The solution instilled into the nasal cavities of the rats in this experiment had the following composition:
Adjust the pH to 2.8 to 3.0 with 0.05M NaOH
At various times following the intranasal and intravenous administration of sildenafil to rats, the concentrations of sildenafil in blood were determined using the following analytical method:
One hundred microliters of rat plasma was treated with 25 microliters of 1M monochloroacetic acid to denature the plasma proteins and release free sildenafil. Seventy-five microliters of acetonitrile was then added to precipitate the proteins. This solution was centifuged for 5 minutes at 5,000 g. The clear supernatant was injected onto the HPLC column.
The HPLC system consisted of the following:
The concentrations are expressed as areas under the HPLC curves×10^-4.

[5] = sublingual, cited from earlier work
[6] = cited from earlier work
[7] = Solubility of the citrate salt in water; type: physicochemical

CCCCC[C@H](O)/C=C/[C@H]1[C@H](O)CC(=O)[C@@H]1CCCCCCC(=O)O [PGE-1]
Results of i.c. injection in erectile dysfunction [1]: good results

CCCc1nn(C)c2c(=O)[nH]c(-c3cc(S(=O)(=O)N4CCN(C)CC4)ccc3OCC)nc12 [Sildenafil, 5-[2-ethoxy-5-(4-methyl-1-piperazinylsulphonyl)-phenyl]-1-methyl-3-n-propyl-1,6-dihydro-7H-pyrazolo[4,3-d]pyrimidin-7-one]
Response in humans, intranasal route vs current oral tablet [2]: much more rapid response | Time to response, oral route [3]: ≥ 60 min | Effectiveness of intranasal compared with intravenous administration ([4]; intranasal vs intravenous): as effective as intravenous administration | Absorption following intranasal administration ([4]; intranasal, comparison of areas under blood concentration versus time curves with intravenous (FIG. 1)): complete and very rapid absorption; also recorded: rapidly and complete absorbed | Concentration of sildenafil in the blood of rats, intranasal, mean ([4]; intranasal): 11.7 areas under the HPLC curves×10 | Concentration of sildenafil in the blood of rats, intranasal, mean ([4]; intranasal, time 2 min): 12.1 areas under the HPLC curves×10 | Concentration of sildenafil in the blood of rats, intranasal, mean ([4]; intranasal, time 5 min): 25.5 areas under the HPLC curves×10 | Concentration of sildenafil in the blood of rats, intranasal, mean ([4]; intranasal, time 10 min): 38.2 areas under the HPLC curves×10 | Concentration of sildenafil in the blood of rats, intranasal, mean ([4]; intranasal, time 15 min): 43.5 areas under the HPLC curves×10 | Concentration of sildenafil in the blood of rats, intranasal, mean ([4]; intranasal, time 20 min): 32.6 areas under the HPLC curves×10 | Concentration of sildenafil in the blood of rats, intranasal, mean ([4]; intranasal, time 30 min): 31.0 areas under the HPLC curves×10 | Concentration of sildenafil in the blood of rats, intranasal, mean ([4]; intranasal, time 40 min): 22.7 areas under the HPLC curves×10 | Concentration of sildenafil in the blood of rats, intranasal, mean ([4]; intranasal, time 50 min): 19.6 areas under the HPLC curves×10 | Concentration of sildenafil in the blood of rats, intravenous, mean ([4]; time 0 min): 188.8 areas under the HPLC curves×10 | Concentration of sildenafil in the blood of rats, intravenous, mean ([4]; time 2 min): 84.7 areas under the HPLC curves×10 | Concentration of sildenafil in the blood of rats, intravenous, mean ([4]; time 5 min): 47.7 areas under the HPLC curves×10 | Concentration of sildenafil in the blood of rats, intravenous, mean ([4]; time 10 min): 32.0 areas under the HPLC curves×10 | Concentration of sildenafil in the blood of rats, intravenous, mean ([4]; time 15 min): 19.5 areas under the HPLC curves×10 | Concentration of sildenafil in the blood of rats, intravenous, mean ([4]; time 20 min): 17.9 areas under the HPLC curves×10 | Concentration of sildenafil in the blood of rats, intravenous, mean ([4]; time 30 min): 16.0 areas under the HPLC curves×10 | Concentration of sildenafil in the blood of rats, intravenous, mean ([4]; time 40 min): 14.6 areas under the HPLC curves×10 | Concentration of sildenafil in the blood of rats, intravenous, mean ([4]; time 50 min): 7.6 areas under the HPLC curves×10 | Tmax ([4]; rat, in vivo, rats, intranasal, approximately, read-out: Time of peak blood concentration): 10 to 15 min

CN1CCc2cccc3c2[C@H]1Cc1ccc(O)c(O)c1-3 [apomorphine]
Effect on erectile function [5]: restore normal erectile function | Men returned to sexual potency ([5]; men whose dysfunction had psychological origins): about 70%

O=[N+]([O-])OCC(CO[N+](=O)[O-])O[N+](=O)[O-] [glyceryl trinitrate (GTN), glyceryl trinitrate]
Effect of patches applied to the penis [6]: effective | Side-effects of patches applied to the penis [6]: produces side-effects in both patient and partner

COc1ccc(Cc2nccc3cc(OC)c(OC)cc23)cc1OC [papaverine]
Results of i.c. injection in erectile dysfunction [1]: good results

CC(COc1ccccc1)N(CCCl)Cc1ccccc1 (stereo not drawn) [phenoxybenzamine]
Results of i.c. injection in erectile dysfunction [1]: good results

Cc1ccc(N(CC2=NCCN2)c2cccc(O)c2)cc1 [phentolamine]
Results of i.c. injection in erectile dysfunction [1]: good results

CCCc1nn(C)c2c(=O)[nH]c(-c3cc(S(=O)(=O)N4CCN(C)CC4)ccc3OCC)nc12 [sildenafil citrate]
solubility [7]: 3500 µg/mL

vasoactive intestinal polypeptide (VIP): vasoactive intestinal polypeptide (HSDAVFTDNYTRLRKQMAVKKYLNSILN; ends and bridges not checked; UniProt P01282 125-152, looked up)
Activity i.c. [1]: active i.c.
